One assay concerns guinea pig left atria. Kind of assay: Positive inotropic effect in guinea pig left atria. Particulars: 37°; for EC50: left atria paced at 2Hz, cumulative addition to maximum 10^-4, read-out: EC50 (concentration that increases DT by 50% above the control DT); for Intrinsic Activity (ratio of the maximum effect of the test compound to that of Bay K 8644): relative to Bay K 8644, left atria paced at 2Hz. As for the experimental part:
Guinea pigs are killed by cervical dislocation. The left atria are removed and mounted at 1 gm resting tension in tissue baths containing oxygenated Krebs bicarbonate solution which is kept at 37°. The left atria are electrically paced at 2Hz with square wave pulses of 1 msec duration. The voltage is set at 1.5× threshold level.
After a one hour equilibration period, control values for developed tension (DT, gm) are recorded. Test compounds are then added to the baths, in a cumulative manner to a maximum concentration of 10^-4, to obtain a concentration-response curve. Treatment values of DT are obtained after the rug effect has reached a plateau and the exposure time for each concentration is 5-8 minutes. Percent change of the treatment value from the control value is calculated at each concentration of the test compound.

Another assay has as its target alpha1 -adrenoceptors. Kind of assay: [^3 H]-prazosin binding assay (affinity for alpha1-adrenoceptors). Particulars: rat brain membranes, 0.2 nM [^3 H]-prazosin, 60 minutes at 25°. As for the experimental part: The [^3 H]-prazosin binding assay was carried out according to the method described by Timmermans, P. B. M. W. M., Schoop, A. M. C., and Van Zwieten, P. A.: Biochem Pharmacol., 31, 899-905, 1982 (1). The reaction mixture contained partially purified rat brain membranes (source of alpha1 -adrenoceptors), 0.2 nM [^3 H]-prazosin with or without potential displacer in Tris buffer. The mixture was incubated for 60 minutes at 25° and subsequently terminated by rapid filtration through glass fiber-filter. Receptor-bound [^3 H]-prazosin trapped in the filter was quantitated by scintillation counting. The inhibitory concentration (IC50) of potential displacer which gives 50% displacement of the total specifically bound [^3 H]-prazosin is presented as a measure of the affinity of such compound for the alpha1 -adrenoceptor.

In the next assay the target is T1, Ca^2 + channels (Rattus norvegicus, UniProt P22002).
T1 construct: rat cardiac microsomes (source of Ca^2 + channels); from tissue; host or cells: rat cardiac microsomes
As to the kind of experiment: [^3 H]-Nitrendipine binding assay (affinity for calcium channels). Particulars: rat cardiac microsomes, 0.5 nM [^3 H]-nitrendipine, 60 minutes at 25°. As for the experimental part: [^3 H]-Nitrendipine binding assay was carried out according to the method described by G. T. Bolger, et al., Biochem. Biophys. Res. Comm., 104, 1604-1609, 1982 (1). The reaction mixture contained rat cardiac microsomes (source of Ca^2 + channels), 0.5 nM [^3 H]-nitrendipinewith or without potential displacer in Tris buffer. The mixture was incubated for 60 minutes at 25° and subsequently terminated by rapid filtration through a glass fiber-filter. Membrane-bound [^3 H]-nitrendipine trapped in the filter was quantitated by scintillation counting. The inhibitory concentration (IC50) of potential displacer which gives 50% displacement of the total specifically bound [^3 H]-nitrendipine is presented as a measure of the affinity of such compound for the Ca^2 + channel.

T1 sequence (P22002 whole entry, other chains not shown): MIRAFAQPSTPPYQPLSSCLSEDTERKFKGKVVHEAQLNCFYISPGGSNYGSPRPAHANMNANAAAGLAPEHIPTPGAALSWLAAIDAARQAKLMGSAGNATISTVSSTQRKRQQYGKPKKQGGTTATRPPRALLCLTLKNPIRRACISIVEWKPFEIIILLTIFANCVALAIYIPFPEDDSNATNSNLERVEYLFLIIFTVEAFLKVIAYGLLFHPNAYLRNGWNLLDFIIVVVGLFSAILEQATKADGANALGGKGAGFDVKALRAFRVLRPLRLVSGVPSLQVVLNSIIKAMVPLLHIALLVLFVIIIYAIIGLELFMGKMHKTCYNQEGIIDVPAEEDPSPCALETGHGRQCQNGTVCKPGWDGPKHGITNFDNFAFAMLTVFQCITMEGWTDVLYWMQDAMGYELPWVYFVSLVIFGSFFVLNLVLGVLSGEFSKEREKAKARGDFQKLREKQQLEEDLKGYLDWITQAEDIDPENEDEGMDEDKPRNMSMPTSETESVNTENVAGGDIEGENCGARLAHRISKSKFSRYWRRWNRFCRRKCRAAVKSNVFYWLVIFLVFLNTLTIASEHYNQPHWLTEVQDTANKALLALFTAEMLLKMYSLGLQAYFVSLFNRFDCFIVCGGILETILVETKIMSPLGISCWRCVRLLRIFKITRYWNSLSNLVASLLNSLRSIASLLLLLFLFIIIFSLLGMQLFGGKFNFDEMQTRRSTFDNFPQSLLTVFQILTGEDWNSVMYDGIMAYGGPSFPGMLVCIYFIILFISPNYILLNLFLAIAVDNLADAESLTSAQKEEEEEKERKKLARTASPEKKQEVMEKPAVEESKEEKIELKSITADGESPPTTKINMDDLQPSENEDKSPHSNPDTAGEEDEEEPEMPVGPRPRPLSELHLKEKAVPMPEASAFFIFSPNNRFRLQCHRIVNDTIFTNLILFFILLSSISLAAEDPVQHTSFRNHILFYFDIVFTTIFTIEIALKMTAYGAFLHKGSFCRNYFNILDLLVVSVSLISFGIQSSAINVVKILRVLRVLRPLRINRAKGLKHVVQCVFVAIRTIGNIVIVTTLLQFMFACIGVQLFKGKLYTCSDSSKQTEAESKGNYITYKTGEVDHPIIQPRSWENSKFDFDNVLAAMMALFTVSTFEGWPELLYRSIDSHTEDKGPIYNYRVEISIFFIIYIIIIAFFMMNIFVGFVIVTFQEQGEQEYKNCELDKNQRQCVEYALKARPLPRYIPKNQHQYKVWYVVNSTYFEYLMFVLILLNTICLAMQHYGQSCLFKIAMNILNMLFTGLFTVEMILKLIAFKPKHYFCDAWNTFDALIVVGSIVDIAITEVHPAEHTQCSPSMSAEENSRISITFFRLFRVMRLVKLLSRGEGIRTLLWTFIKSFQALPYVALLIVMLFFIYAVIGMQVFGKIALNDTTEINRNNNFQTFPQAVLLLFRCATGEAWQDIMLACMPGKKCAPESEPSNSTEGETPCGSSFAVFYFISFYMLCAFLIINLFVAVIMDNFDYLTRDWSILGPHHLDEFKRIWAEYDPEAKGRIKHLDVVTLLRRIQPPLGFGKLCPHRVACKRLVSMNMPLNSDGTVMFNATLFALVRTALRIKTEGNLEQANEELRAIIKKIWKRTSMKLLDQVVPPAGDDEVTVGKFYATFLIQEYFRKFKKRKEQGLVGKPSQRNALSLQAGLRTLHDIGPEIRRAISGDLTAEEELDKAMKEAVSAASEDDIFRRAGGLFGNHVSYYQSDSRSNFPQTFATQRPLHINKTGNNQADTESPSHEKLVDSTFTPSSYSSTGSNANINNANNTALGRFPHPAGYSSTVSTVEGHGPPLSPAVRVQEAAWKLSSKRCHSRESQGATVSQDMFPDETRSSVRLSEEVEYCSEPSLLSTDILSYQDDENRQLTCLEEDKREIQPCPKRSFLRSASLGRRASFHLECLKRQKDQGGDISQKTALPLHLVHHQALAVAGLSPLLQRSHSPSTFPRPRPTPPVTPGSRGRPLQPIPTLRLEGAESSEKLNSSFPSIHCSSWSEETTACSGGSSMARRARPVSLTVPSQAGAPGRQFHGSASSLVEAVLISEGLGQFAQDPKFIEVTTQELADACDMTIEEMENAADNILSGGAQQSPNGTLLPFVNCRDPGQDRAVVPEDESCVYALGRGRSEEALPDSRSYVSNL
T1 sequence (P54290 25-944 partner limits assumed, other chains not shown): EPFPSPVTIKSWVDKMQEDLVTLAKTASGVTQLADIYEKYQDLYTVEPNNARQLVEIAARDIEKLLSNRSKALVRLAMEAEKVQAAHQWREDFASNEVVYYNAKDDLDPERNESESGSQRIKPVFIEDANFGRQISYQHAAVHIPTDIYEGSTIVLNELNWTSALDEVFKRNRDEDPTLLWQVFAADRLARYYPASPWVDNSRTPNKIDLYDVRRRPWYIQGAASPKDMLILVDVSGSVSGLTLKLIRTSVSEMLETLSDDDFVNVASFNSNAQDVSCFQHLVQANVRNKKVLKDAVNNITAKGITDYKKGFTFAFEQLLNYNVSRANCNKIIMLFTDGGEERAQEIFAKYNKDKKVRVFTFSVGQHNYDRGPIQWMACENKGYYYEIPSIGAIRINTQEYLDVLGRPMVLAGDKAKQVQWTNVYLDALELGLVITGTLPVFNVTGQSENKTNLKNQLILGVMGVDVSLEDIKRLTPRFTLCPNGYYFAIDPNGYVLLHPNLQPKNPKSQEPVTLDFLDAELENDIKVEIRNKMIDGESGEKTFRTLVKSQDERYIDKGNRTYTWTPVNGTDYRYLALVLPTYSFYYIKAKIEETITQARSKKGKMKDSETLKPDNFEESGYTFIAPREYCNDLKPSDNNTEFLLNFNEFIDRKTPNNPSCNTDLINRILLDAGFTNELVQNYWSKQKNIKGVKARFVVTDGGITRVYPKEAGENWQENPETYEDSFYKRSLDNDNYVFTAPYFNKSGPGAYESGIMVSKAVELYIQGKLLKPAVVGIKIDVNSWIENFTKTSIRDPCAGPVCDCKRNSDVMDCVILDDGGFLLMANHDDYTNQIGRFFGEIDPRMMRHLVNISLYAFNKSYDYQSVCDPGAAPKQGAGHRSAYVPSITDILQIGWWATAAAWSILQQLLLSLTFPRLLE
T1 sequence (P54290 945-1091 partner limits assumed, other chains not shown): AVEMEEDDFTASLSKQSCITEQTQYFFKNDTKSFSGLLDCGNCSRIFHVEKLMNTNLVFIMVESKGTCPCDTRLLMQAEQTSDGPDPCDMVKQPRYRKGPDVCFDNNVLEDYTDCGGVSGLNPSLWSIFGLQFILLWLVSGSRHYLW

As for `COc1ccccc1N1CCN(CCOC(=O)C2=C(C)NC(C)=C([N+](=O)[O-])C2c2cccc(C(F)(F)F)c2)CC1` (stereo not shown) [Example 1, 1,4-Dihydro-2,6-dimethyl-5-nitro-4-[3-(trifluoromethyl)phenyl]-[2-[4-(2-methoxyphenyl)-1-piperazinyl]ethyl]ester-3-pyridinecarboxylic acid], in the assay on guinea pig left atria, the EC50 was 27 µM and the “Intrinsic Activity (ratio of the maximum effect of the test compound to that of Bay K 8644)” value came to 30%. This compound registered an IC50 at alpha1 -adrenoceptors of 0.96 µM.
For the compound `COc1ccccc1N1CCN(CCOC(=O)C2=C(C)NC(C)=C([N+](=O)[O-])C2c2ccccc2C(F)(F)F)CC1` (stereo not shown) [Example 2, 1,4-Dihydro-2,6-Dimethyl-5-nitro-4-[2-(trifluoromethyl)phenyl]-[2-[4-(2-methoxyphenyl)-1-piperazinyl]ethyl]ester-3-pyridinecarboxylic acid], in the assay on guinea pig left atria, the EC50 was found to be 0.044 µM and the “Intrinsic Activity (ratio of the maximum effect of the test compound to that of Bay K 8644)” value was 145%. Moreover, the IC50 at Ca^2 + channels is 0.029 µM. Besides, on alpha1 -adrenoceptors, the IC50 is 0.8 µM.
The corresponding values for `COc1ccccc1N1CCN(CCOC(=O)C2=C(C)NC(C)=C([N+](=O)[O-])C2c2ccccc2Cl)CC1` (stereo not shown) [Example 5] are 0.56 µM, 100%, 0.073 µM and 0.49 µM.
Consider `COc1cccc(OC)c1OCCNCCOC(=O)C1=C(C)NC(C)=C([N+](=O)[O-])C1c1ccccc1C(F)(F)F` (stereo not shown) [Example 13], for which, in the assay on guinea pig left atria, the EC50 was 30 µM and the “Intrinsic Activity (ratio of the maximum effect of the test compound to that of Bay K 8644)” value is recorded as 50%. For the same compound, the IC50 at Ca^2 + channels worked out at 0.83 µM. On alpha1 -adrenoceptors, this compound registered an IC50 of over 10 µM.
Regarding `COc1ccccc1N1CCN(CCCCOC(=O)C2=C(C)NC(C)=C([N+](=O)[O-])C2c2cccc(C(F)(F)F)c2)CC1` (stereo not shown) [Example 57], the values for the IC50 on Ca^2 + channels and at alpha1 -adrenoceptors were 0.99 µM and 0.97 µM, respectively.
With `COC(=O)C1=C(C)NC(C)=C([N+](=O)[O-])C1c1cc(OCCN2CCN(c3ccccc3OC)CC2)ccc1[N+](=O)[O-]` (stereo not shown) [Example 68], the IC50 at Ca^2 + channels amounted to 16 µM; on alpha1 -adrenoceptors, 0.59 µM.
As for `COC(=O)C1=C(C)NC(C)=C([N+](=O)[O-])C1c1ccccc1OCCCN1CCN(c2ccccc2C(F)(F)F)CC1` (stereo not shown) [Example 104], the IC50 came to 0.2 µM at Ca^2 + channels and 8.6 µM at alpha1 -adrenoceptors.
The corresponding values for `COc1ccccc1N1CCN(CCCCOc2ccccc2C2C(C(=O)Nc3ccccc3)=C(C)NC(C)=C2[N+](=O)[O-])CC1` (stereo not shown) [Example 115] are 110 µM and 0.13 µM.
`COC(=O)C1=C(C)NC(C)=C([N+](=O)[O-])C1c1ccccc1OCCCCN1CCN(c2ccccc2C)CC1` (stereo not shown) [Example 118]: the IC50 at Ca^2 + channels is 0.54 µM; at alpha1 -adrenoceptors it was 0.85 µM.
On the same counts, the results for `COC(=O)C1=C(C)NC(C)=C([N+](=O)[O-])C1c1ccccc1OCC=CCN1CCN(c2ccccc2OC)CC1` (stereo not shown) [Example 119] are 0.8 µM and 0.49 µM.
The corresponding values for `COC(=O)C1=C(C)NC(C)=C([N+](=O)[O-])C1c1cccc(OC)c1OCC=CCN1CCN(c2ncccn2)CC1` (stereo not shown) [Example 121] are 3 µM and 8.2 µM.
On to `COc1ccccc1N1CCN(CCCOc2cccc(C3C(C(=O)Nc4ccccc4)=C(C)NC(C)=C3[N+](=O)[O-])c2)CC1` (stereo not shown) [Example 122], for which the values for the IC50 on Ca^2 + channels and on alpha1 -adrenoceptors were over 10 µM and 0.23 µM, respectively.
Take `COC(=O)C1=C(C)NC(C)=C([N+](=O)[O-])C1c1cccc(OCCCN2CCN(c3ncccn3)CC2)c1` (stereo not shown) [Example 124]: the IC50 at Ca^2 + channels is 18 µM; at alpha1 -adrenoceptors, 1.2 µM.
On the same counts, the results for `CCOC(=O)C1=C(C)NC(C)=C([N+](=O)[O-])C1c1cccc(OCCCN2CCN(c3ccccn3)CC2)c1` (stereo not shown) [Example 126] are 5 µM and 0.29 µM.
For the compound `COC(=O)C1=C(C)NC(C)=C([N+](=O)[O-])C1c1cccc(OCC#CCN2CCN(c3ccccc3OC)CC2)c1` (stereo not shown) [Example 127], the IC50 came to 2 µM on Ca^2 + channels and 2.7 µM on alpha1 -adrenoceptors.
On the same counts, the results for `COC(=O)C1=C(C)NC(C)=C([N+](=O)[O-])C1c1cccc(OCCCN2CCN(c3ccccn3)CC2)c1` (stereo not shown) [Example 128] are 5.7 µM and 0.1 µM.
As for `COC(=O)C1=C(C)NC(C)=C([N+](=O)[O-])C1c1cccc(OCCCN2CCN(c3ccccc3C)CC2)c1` (stereo not shown) [Example 131], the IC50 was found to be 3.6 µM at Ca^2 + channels and 0.15 µM at alpha1 -adrenoceptors.
For `COC(=O)C1=C(C)NC(C)=C([N+](=O)[O-])C1c1cccc(OCCCN2CCN(c3ccccc3Cl)CC2)c1` (stereo not shown) [Example 132], the IC50 at Ca^2 + channels was found to be 2.3 µM; at alpha1 -adrenoceptors, 0.13 µM.
With `COc1ccccc1N1CCN(CCCCOc2ccccc2C2C(C(=O)OC(C)C)=C(C)NC(C)=C2[N+](=O)[O-])CC1` (stereo not shown) [Example 133], the IC50 on Ca^2 + channels is 0.42 µM; on alpha1 -adrenoceptors, 0.75 µM.
`COc1ccccc1N1CCN(CCCOc2ccccc2C2C(C(=O)OC(C)C)=C(C)NC(C)=C2[N+](=O)[O-])CC1` (stereo not shown) [Example 134]: the IC50 at Ca^2 + channels is 8.4 µM; on alpha1 -adrenoceptors it was 0.34 µM.
The corresponding values for `COC(=O)C1=C(C)NC(C)=C([N+](=O)[O-])C1c1ccc(OCCCN2CCN(c3ccccc3OC)CC2)cc1` (stereo not shown) [Example 135] are 6.7 µM and 0.43 µM.
As to `COC(=O)C1=C(C)NC(C)=C([N+](=O)[O-])C1c1cccc(OCC2OC2CN2CCN(c3ccccc3OC)CC2)c1` (stereo not shown) [Example 136], the IC50 at Ca^2 + channels and on alpha1 -adrenoceptors was over 10 µM throughout.
In the case of `COC(=O)C1=C(C)NC(C)=C([N+](=O)[O-])C1c1ccc(OCCCN2CCN(c3ccccc3OC)CC2)c([N+](=O)[O-])c1` (stereo not shown) [Example 137], the IC50 amounted to 6.1 µM on Ca^2 + channels and 0.44 µM at alpha1 -adrenoceptors.
The corresponding values for `COC(=O)C1=C(C)NC(C)=C([N+](=O)[O-])C1c1cc([N+](=O)[O-])ccc1OCCCCN1CCN(c2ccccc2OC)CC1` (stereo not shown) [Example 138] are 0.22 µM and 0.28 µM.
Take `COC(=O)C1=C(C)NC(C)=C([N+](=O)[O-])C1c1cc(Cl)cc(Cl)c1OCCCCCN1CCN(c2ccccc2OC)CC1` (stereo not shown) [Example 141]: the IC50 at Ca^2 + channels was determined as 0.63 µM; at alpha1 -adrenoceptors it was 0.83 µM.
In the case of `COC(=O)C1=C(C)NC(C)=C([N+](=O)[O-])C1c1cc(Cl)ccc1OCCCCN1CCN(c2ccccc2OC)CC1` (stereo not shown) [Example 143], the IC50 at Ca^2 + channels is 0.19 µM; on alpha1 -adrenoceptors, 0.35 µM.
The corresponding values for `C=CCc1cccc(C2C(C(=O)OC)=C(C)NC(C)=C2[N+](=O)[O-])c1OCCCCN1CCN(c2ccccc2OC)CC1` (stereo not shown) [Example 144] are 1.3 µM and 0.31 µM.
In the case of `COC(=O)C1=C(C)NC(C)=C([N+](=O)[O-])C1c1cc(Cl)ccc1OCCCCCN1CCN(c2ccccc2OC)CC1` (stereo not shown) [Example 145], the IC50 was 0.18 µM on Ca^2 + channels and 0.63 µM on alpha1 -adrenoceptors.
On the same counts, the results for `COc1ccccc1N1CCN(CCCCOc2ccccc2C2C(C(=O)OC(C)(C)C)=C(C)NC(C)=C2[N+](=O)[O-])CC1` (stereo not shown) [Example 146] are 0.47 µM and 0.99 µM.
On the same counts, the results for `COC(=O)C1=C(C)NC(C)=C([N+](=O)[O-])C1c1cccc(OCCCN2CCN(c3ccccc3OC)CC2)c1[N+](=O)[O-]` (stereo not shown) [Example 149] are 8.9 µM and 0.29 µM.
In the case of `COC(=O)C1=C(C)NC(C)=C([N+](=O)[O-])C1c1cccc(OCCCCN2CCN(c3ccccc3OC)CC2)c1[N+](=O)[O-]` (stereo not shown) [Example 150], the IC50 on Ca^2 + channels was determined as 4 µM; at alpha1 -adrenoceptors it was 0.22 µM.
For `COC(=O)C1=C(C)NC(C)=C([N+](=O)[O-])C1c1cccc(OCCCCCN2CCN(c3ccccc3OC)CC2)c1[N+](=O)[O-]` (stereo not shown) [Example 151], the IC50 at Ca^2 + channels was determined as 4.7 µM; on alpha1 -adrenoceptors, 0.2 µM.
For `COC(=O)C1=C(C)NC(C)=C([N+](=O)[O-])C1c1cc(OC)ccc1OCCCCN1CCN(c2ccccc2OC)CC1` (stereo not shown) [Example 152], the IC50 at Ca^2 + channels is 0.69 µM; on alpha1 -adrenoceptors, 0.27 µM.
On to `COC(=O)C1=C(C)NC(C)=C([N+](=O)[O-])C1c1cc(OC)ccc1OCCCCCN1CCN(c2ccccc2OC)CC1` (stereo not shown) [Example 153], for which the figures for the 50% inhibitory concentration (IC50) at Ca^2 + channels and on alpha1 -adrenoceptors were 0.88 µM and 0.12 µM, respectively.
Take `COC(=O)C1=C(C)NC(C)=C([N+](=O)[O-])C1c1ccccc1OCCN1CCN(c2ncccn2)CC1` (stereo not shown) [Example 154]: the half-maximal inhibitory concentration (IC50) on Ca^2 + channels was found to be 1.4 µM; at alpha1 -adrenoceptors it was 9.3 µM.
`COC(=O)C1=C(C)NC(C)=C([N+](=O)[O-])C1c1ccccc1OCCCCCN1CCN(c2ncccn2)CC1` (stereo not shown) [Example 155]: the IC50 was 0.25 µM on Ca^2 + channels and 2.6 µM on alpha1 -adrenoceptors.

As a reminder, the IC50 is the midpoint of a concentration-inhibition curve.
